{
  "source": "patent US11034666B2",
  "about": "“Anti-inflammatory and antitumor 2-oxothiazoles and 2-oxothiophenes compounds” (Avexxin AS, priority 2013, dated 2021)",
  "key": {"[1]": {"test_system": "rat streptozocin-induced model of human chronic renal disease", "assay": "Rat streptozocin-induced model of human chronic renal disease, urine protein", "type": "in vivo, Sprague Dawley rats", "conditions": "AVX235 10 mg/kg ip; losartan 30 mg/kg oral gavage daily; 2 weeks", "description": "The therapeutic effect of AVX235 was tested in the rat streptozocin-induced model of human chronic renal disease and compared against losartan (positive control).\nSprague Dawley rats (Harlan laboratories, USA) of an average weight of 130-150 grams were divided in groups of 8 animals per group and were treated according to table 7:\nAVX235 was injected intraperitoneally, once daily for the first 4 days and then every two days. Losartan was administered daily, by oral gavage. At 2 weeks post experiment initiation, urine was collected over a period of 24 h and total protein in mg was measured."}, "PGE2 [2]": {"test_system": "PGE2", "assay": "Plasma PGE2 EIA, therapeutic CIA study", "type": "in vivo, male DBA/1 mice", "conditions": "therapeutic CIA study; Compound A 30 mg/kg, Enbrel 25 mg/kg; vehicle 231.1±110; mean ± SD", "description": "There were no significant differences between the treatment groups (p>0.05).\n(§1) PGE2 EIA analysis of blood plasma from the prophylactic and therapeutic CIA studies was performed according to kit protocol. Plasma samples were diluted 1:1000-1:6000 in EIA buffer and allowed to hybridize over-night (18 hrs, 4° C.). The plate was read using a Multiscan plate reader (Ascent Labsystems) (OD550 nm). The corresponding Ascent software for Multiscan, Version 2.4.1 was used to obtain the data. PGE2 levels for all treatments are shown relative to the DMSO-treated vehicle arthritic mice (n=10-11 mice in each category±SD).\n(§2) For the prophylactic and the therapeutic studies, CIA was induced in male DBA/1 mice (except naïve mice) by immunization with 0.1 mL emulsion containing an equal volume of bovine type II collagen solution (2 mg/mL) and Freuds Complete Adjuvant at the tail base. The first injection was given on Day 0 and the second injection as booster was given on Day 21 (41-43). COMPOUND A, vehicle (DMSO) and MTX (0.3 mg/kg) were administered daily, Enbrel (25 mg/kg) was administrated twice a week. For the prophylactic study, treatment started one hour before the second collagen injection and continued for 21 days except for the histology groups that were sacrificed at Day 13 ([…]). For the therapeutic study, treatment started at Day 28 and continued for 14 days."}, "[3]": {"test_system": "collagen-induced arthritis (CIA) mouse model", "assay": "Therapeutic collagen-induced arthritis (CIA) study", "type": "in vivo, male DBA/1 mice", "conditions": "Days 36 to 41; Compound A 30 mg/kg ip daily; Enbrel 25 mg/kg twice a week", "from_the_text": "The therapeutic effect of Compound A on CIA model in male DBA/1 mice following ip administration, treatment starting 7 days after the last immunization was explored. CIA developed rapidly in mice immunized with CII, with maximum AI of 10.2 observed at 39 days post immunization. The AI and incidence of vehicle- and Compound A treated groups increased in a time-dependent mode from Days 29 to 41. […] Compound A and Enbrel performed equally well; there were no significant difference between these treatments groups.\nSeparate prophylactic and therapeutic efficacy studies of COMPOUND A were performed. […] Body weights were measured and recorded prior to randomization and then once daily during the study. Food consumption was measured and recorded daily. […] Necropsy examinations were performed at study termination; plasma samples were collected, organ weights were recorded […]\nCIA Assessment and Treatment. CIA was assessed in mice by two blinded observers to measure paw swelling with a capacity measurement method on Day 0, Day 20, Day 22, Day 25, Day 27, Day 29, Day 32, Day 34, Day 36, Day 39 and Day 41 after the first injection. […] However, the values measured were not included in the mean value calculations of the main groups. […]"}, "[4]": {"test_system": "collagen-induced arthritis (CIA) mouse model", "assay": "Prophylactic collagen-induced arthritis (CIA) study", "type": "in vivo, male DBA/1 mice", "description": "The prophylactic effect of Compound A on CIA model in male DBA/1 mice^57 following intraperitoneal (ip) administration, treatment starting 1 hour prior to the last immunization was studied. A study comparing naïve mice (healthy, non-CIA, non-treated), vehicle-treated mice (CIA with DMSO, ip) and CIA mice treated daily with Compound A (7.5 mg/kg, ip) or MTX (0.3 mg/kg, ip) was performed. CIA developed rapidly in mice immunized with CII. In the prophylactic study, a 100% incidence of CIA was observed by day 29 in CII-immunized mice, with maximum AI of 8.55 observed at 41 days post immunization. The AI and incidence of all groups increased in a time-dependent mode from day 25 to day 41.\nSeparate prophylactic and therapeutic efficacy studies of COMPOUND A were performed. Methotrexate (MTX) (Jiangsu Hengrui Medicine Co, #11041411), Enbrel (Boehringer Ingelheim Pharma KG, # F39487), and vehicle (DMSO 100%, Sigma Aldrich # D2650) were administered to all groups via intraperitoneal injection once daily at a dose volume of 2 mL/kg. Observations for morbidity, mortality, injury, and the availability of food and water were conducted twice daily for all animals. Clinical observations were conducted daily during the study. Body weights were measured and recorded prior to randomization and then once daily during the study. Food consumption was measured and recorded daily. Biopsies for mid-term histology analysis were obtained on Day 13 in the prophylactic study. Necropsy examinations were performed at study termination; plasma samples were collected, organ weights were recorded\nas §2\nCIA Assessment and Treatment. CIA was assessed in mice by two blinded observers to measure paw swelling with a capacity measurement method on Day 0, Day 20, Day 22, Day 25, Day 27, Day 29, Day 32, Day 34, Day 36, Day 39 and Day 41 after the first injection. The occurrence of arthritis was observed by scoring all paws for severity of erythema and swelling, using a clinical score ranging from 0 (no swelling) to 4 (severe swelling and erythema). The physical condition of the animals was observed daily. Scores and overall evaluation of the histology group arms were performed in the same way as the main groups. However, the values measured were not included in the mean value calculations of the main groups. The YLS-7B Foot Volume Measuring Instrument (Huaibei China Bio Equipment) was used to measure the foot volume of mice. The occurrence of arthritis was observed by scoring all paws for severity of erythema and swelling, using a clinical score ranging from 0 (no swelling) to 4 (severe swelling and erythema), i.e. yielding maximum arthritic index (AI) score 16 (46).\nMeasurement of the histopathology and clinical observations. At the end of the studies, one hind foot of each mouse was collected for histopathology. The foot including the ankle was fixed in 10% neutral formalin. The ankle joints were decalcified, dehydrated, embedded in paraffin, sectioned and stained with routine hematoxylin-eosin. The sections were studied using light microscopy (10×10 and 20×10 magnifications). Arthritis damage (histological damage score) was evaluated and scored by an investigator blinded for the treatment regimen. […]"}, "PGE2 [5]": {"test_system": "PGE2", "assay": "Plasma PGE2 EIA, prophylactic CIA study", "type": "in vivo, male DBA/1 mice", "conditions": "prophylactic CIA study; Compound A 7.5 mg/kg, MTX 0.3 mg/kg; vehicle 223.4±107; mean ± SD", "description": "PGE2 is recognized as an important contributor to the joint inflammation in rheumatoid arthritis,^60 and we investigated if plasma PGE2 levels were changed in response to treatment. […] There were no significant differences between the treatment groups (p>0.05).\nas §1, §2"}, "MAS98.12 xenograft": {"test_system": "MAS98.12 xenograft", "conditions": "FIG. 1; data from an earlier study in the same animal model [13]; cited from earlier work"}, "[6]": {"conditions": "hind paw, Compound A 7.5 mg/kg, MTX 0.3 mg/kg"}},
  "data": [
    {"compound": "CCCCc1nc(Cl)c(CO)n1Cc1ccc(-c2ccccc2-c2nn[nH]n2)cc1", "note": "[losartan]", "values": [
      {"measurement": "therapeutic effect on STZ-induced urine protein (in words)", "setting": "[1]", "result": "protected rats from the STZ effect"}
    ]},
    {"compound": "Enbrel", "values": [
      {"measurement": "plasma PGE2 level", "setting": "PGE2 [2]", "result": "187.5 ± 74", "unit": "ng/mL"},
      {"measurement": "arthritic index (AI) in comparison to the CIA control group (in words)", "setting": "[3]", "result": "significantly decreased"}
    ]},
    {"compound": "CN(Cc1cnc2nc(N)nc(N)c2n1)c1ccc(C(=O)N[C@@H](CCC(=O)O)C(=O)O)cc1", "note": "[MTX, Methotrexate, reference compound]", "values": [
      {"measurement": "arthritic index (AI) in comparison to the CIA control group (in words)", "setting": "[4]; Days 32 to 41, Compound A 7.5 mg/kg ip daily, MTX 0.3 mg/kg ip daily", "result": "significantly reduced"},
      {"measurement": "articular cavity and peripheral tissue inflammatory cell infiltration, histopathology vs vehicle (in words)", "setting": "[4]; [6]", "result": "did not reduce"},
      {"measurement": "capillary and synovial hyperplasia, histopathology vs vehicle (in words)", "setting": "[4]; [6]", "result": "did not reduce"},
      {"measurement": "cartilage damage, histopathology vs vehicle (in words)", "setting": "[4]; [6]", "result": "did not reduce"},
      {"measurement": "plasma PGE2 level", "setting": "PGE2 [5]", "result": "107.3 ± 62", "unit": "ng/mL"}
    ]},
    {"compound": "Cn1c(=O)n(-c2ccc(C(C)(C)C#N)cc2)c2c3cc(-c4cnc5ccccc5c4)ccc3ncc21", "note": "[BEZ235]", "values": [
      {"measurement": "tumor volume (in words)", "setting": "MAS98.12 xenograft", "result": "tumor volumes are reduced"}
    ]}
  ]
}
